From BindingDB's records for doi:10.1016/j.bioorg.2014.02.002 (Swami Ramanand Teerth Marathwada University, 2014) come the findings set out here.

This test deals with Aldose reductase (Capra hircus). The test can be described thus: The reaction mixture contained 1 mL of 1 M potassium phosphate buffer (pH 6.2), 0.4 mM lithium sulfate and 5 µM 2-mercaptoethanol, 10 µM DL-glyceraldehyde, […], and crude enzyme. The reaction mixture was incubated at 37 °C for 10 min. The reaction was initiated by the addition of NADPH and the decrease in absorbance was measured a.

Each structure is given as a SMILES string. Where “and” joins values, the source holds several entries; their conditions need not be identical. Equal values may be shown once.

By IC50 is commonly meant the midpoint of a concentration-inhibition curve.

`NC(=S)N1C=C(N)C(=Cc2ccc(F)cc2)C1=O` [(3Z)‐4‐amino‐3‐[(4‐methoxyphenyl)methylidene]‐2‐ oxopyrrole‐1‐carbothioamide (2c)]: the IC50 is 11.9 µM and 12.8 µM.
As to `NC(=S)N1N=C(N)C(=Cc2cn(-c3ccccc3)nc2-c2ccc(Cl)cc2)C1=O` [(4E)‐3‐amino‐4‐{[3‐(4‐chlorophenyl)‐1‐ phenylpyrazol‐4‐yl]methylidene}‐5‐oxopyrazole‐1‐ carbothioamide (2e)], the IC50 was found to be 6.3 µM.
Take `NC1=NNC(=O)C1=Cc1cn(-c2ccccc2)nc1-c1ccc(Cl)cc1` [(4E)‐5‐amino‐4‐{[3‐(4‐chlorophenyl)‐1‐ phenylpyrazol‐4‐yl]methylidene}‐2H‐pyrazol‐3‐one (1e)]: the IC50 was 9.2 µM.
Take `COc1ccc(-c2cc(C=C3C(=O)N(C(N)=S)N=C3N)n(-c3ccccc3)n2)cc1` [(4Z)‐3‐amino‐4‐{[5‐(4‐methoxyphenyl)‐2‐ phenylpyrazol‐3‐yl]methylidene}‐5‐oxopyrazole‐1‐ carbothioamide (2d)]: the half-inhibitory concentration (IC50) is 8.1 µM.
